The values below come from patent publication US12351653B1, “Pharmaceutical compositions comprising novel cyclic peptides” (LISATA THERAPEUTICS, INC., priority 2019, dated 2025).

Where only a bound is given, the exact number is not on record here.

Assay [1] has as its system metastatic pancreatic cancer. In words: Phase I trial (CEND-001) of CEND-1 with gemcitabine and nab-paclitaxel: response and survival. In kind it is in vivo, human. As to the method: (§1) Patients will first receive the intravenous infusion of nabpaclitaxel (125 mg/m^2 over 30 minutes (±3 minutes)).
(§2) Patients (n=31) who had measurable metastatic pancreatic cancer, no prior treatments for metastatic disease and an ECOG PS of 0 to 1 were included. Primary endpoints are safety and optimal biologic dose, secondary and exploratory endpoints included response rates, pharmacokinetics and biomarkers.

For assay [2], the system named is CA19-9. Description: Phase I trial (CEND-001): tumor biomarker CA19-9. Type of assay: in vivo, human. The note with it: with nab-paclitaxel and gemcitabine. As to the method: as §1, §2
Of these, 23 patients had at least one on-treatment CA19-9 measurement.

[3] abbreviates: with nab-paclitaxel and gemcitabine.
[4] abbreviates: with nab-paclitaxel and gemcitabine, RECIST 1.1, 29 evaluable patients.
[5] abbreviates: patients with elevated baseline CA19-9 and a postbaseline assessment (23).

With “Ac-Cys-Arg-Gly-Asp-Lys-Gly-Pro-Asp-Cys-NH2 (Cys & Cys Bridge) [CEND-1]”, in assay [1] (with nab-paclitaxel 125 mg/m^2 and gemcitabine 1000 mg/m^2, investigator assessed RECIST 1.1, 29 evaluable patients), the Complete response is reported as 3.4%. Further, in assay [1] (setting [3]), the “Median time to progression” value is “approximately 9.7 months” and the “Response rates relative to the benchmark trials” value was greater than 2 times. In addition, in assay [1] (with nab-paclitaxel and gemcitabine, 16/29 patients), the Patients with progression is on record as 55.2%. Also, in assay [1] (with nab-paclitaxel and gemcitabine, 17/29 patients (95% CI=38.9, 76.5)), the “Confirmed objective responses (OR)” value came out at 58.6%. For the same substance, in assay [1] (setting [4]), the Partial response came out at 55%, the Progressive disease worked out at 6.9% and the Stable disease is recorded as 34%. For the same substance, the “Overall response rate (ORR)” value in assay [1] (with nab-paclitaxel and gemcitabine, all evaluable patients (N=29)) is listed as 59%. In addition, the “Median (IQR) PFS” value in assay [1] (with nab-paclitaxel and gemcitabine, at study closure) was determined as 9.7 months. Also, the “Overall disease control rate for 16 weeks” value in assay [1] (with nab-paclitaxel and gemcitabine, evaluable patients (N=29)) was determined as 79%. Further, the “Patients with a ≥50% reduction in CA19-9 from Baseline” value in assay [2] (Cycle 5 Day 1, 20/22 patients) is recorded as 90.9%. For the same substance, in assay [2] (setting [5]), the “Patients with CA19-9 decrease from baseline of at least 20%” value stood at 96% and the “Patients with CA19-9 decrease of at least 90% and/or CA19-9 levels normalized” value is 74%.
